Where two headings read alike, the source gives them in different places.
Columns and labels:
Arabidopsis plants [1] = test: pHBA analysis in tissue of transgenic plants by acid hydrolysis and HPLC; assay type: in vivo, Arabidopsis thaliana; settings: for Whole stalk pHBA highest: best primary transformant; for Whole stalk pHBA highest / Basal stalk pHBA average / Basal stalk pHBA highest: Table 5; for Basal stalk pHBA average / Basal stalk pHBA highest: primary transformants, eight weeks; for Basal stalk pHBA average: 2 cm stem segment at base; for pHBA levels relative to the best 35S HCHL line: whole stalk tissue, best lines
Procedure: If not stated otherwise, plants were grown under standard conditions ([…], 12 h darkness) in a greenhouse. Plants expressing HCHL genes where grown at 100 μE m^−2 sec^−1, 14 h light (23° C.), 12 h (18° C.) darkness and 70% relative humidity in growth chambers (Conviron, USA). Sterile plant cultures were maintained under identical conditions in a plant growth chamber (Percival, USA).
Arabidopsis thaliana plants were transformed using Agrobacterium strains (C58, C1 GV3101 MP90) (Koncz, C. and Schell, J., Mol. Gen. Genet., 204:383-396 (1986)) and published protocols of the in-planta transformation method (Desfeux et al., Plant Physiology, 123(3):895-904 (2000)). Selection for transformants carrying the NPTII gene was conducted on sterile growth media in the presence of 50 mg/L kanamycin. Selection for transformants carrying the BAR gene was conducted on sterile growth media in the presence of 7.5 mg/L glufosinate or by germinating seed in soil followed by spray-application of an aqueous solution (6 mg/L) of glufosinate herbicide (Sigma, USA) 7 days after germination. Plants destined for plant transformation experiments were grown under permanent light at 23° C. to accelerate flower development.
pHBA was quantitated in plant tissue by HPLC analysis. For determination of pHBA conjugates, fresh oven-dried or lyophilized tissue was extracted with 50% MeOH. To quantitate free pHBA plant samples (fresh, dried, lyophilized plant tissue or dried-down methanol extracts of plant tissue) were subjected to acid hydrolysis. Dried or lyophilized tissue was ground to a fine powder using a Cyclotec 1093 tissue mill (Foss Tecator, Sweden) prior to hydrolysis. Tissue (5-25 mg of dried or lyophilized material, 10-100 mg of fresh tissue) was supplemented with 500-750 μL of 1M HCl and incubated at 100° C. for 1-3 h. The hydrolysate was adjusted to alkaline pH by addition of one volume of 1.1 M NaOH.

Arabidopsis plants [2] = settings: in vivo
[3] = HCHL enzyme activity in leaf and stalk tissue of transgenic plants; settings: leaf, T2 lines, eight weeks, Table 6
Text: For this experiment the basal stem segment was used.
The primary transformants were self crossed and T2 seed material was germinated on selective media containing glufosinate, transferred to soil, and grown for eight weeks. Leaf and stalk tissue was harvested and subjected to pHBA analysis and assayed for HCHL activity (Table 6).
T2 plants of the Caulobacter and Pseudomonas fluorescens HCHL transgenics were germinated on selective media and grown in soil for 6 weeks to obtain sufficient stalk tissue for analysis of HCHL enzyme activity.

[4] = test system: Pseudomonas fluorescens AN103 HCHL (4-hydroxycinnamoyl-CoA hydratase/lyase); settings: published, Mitra et al., Arch. Biochem. Biophys., 365(1):6-10 (1999); cited from earlier work
[5] = test system: Pseudomonas putida (DSM 12585) HCHL (4-hydroxycinnamoyl-CoA hydratase/lyase), variant with C-terminal hexa-histidine tag, SEQ ID NO:10; test: Kinetic properties of the purified his-tagged HCHL enzyme from Pseudomonas putida (DSM 12585); HPLC quantitation of pHBALD / vanillin; settings: for Km / Vmax: his-tagged enzyme, 5.5 min; for Km: 100 mM Tris/HCl pH 8.5, 30° C., pHCACoA 343 to 2.7 μM, feruloylCoA 293 to 2.3 μM; for Vmax: pH 8.5, 30° C.
Procedure: A second expression construct was generated that expresses a variant of the HCHL protein that carries a C-terminal hexa-histidine tag.
LB medium (200 mL containing 50 mg/L kanamycin) was inoculated with a single colony of E. coli BL21 DE3 cells harboring the pET29a HCHL 6×His Tag expression construct. Cells were grown to an ODλ=600 nm of 0.6 and protein production was induced by addition of 0.2 mM IPTG. Cells were grown at room temperature for 24 h. Cells were harvested by centrifugation (5000×g for 10 min) and resuspended in 2.5 mL of 100 mM Tris/HCl (pH 8.5), 20 mM DTT, and 300 mM NaCl. The cell suspension was passed twice through a French press and cleared by centrifugation (30000×g, 20 min, at 4° C.). The cell-free extract was buffer-exchanged using PD10 columns into 20 mM NaPO4 (pH 7.5), 500 mM NaCl, and 10 mM imidazole and loaded on a 5 mL HiTrap chelating chromatography cartridge (Amersham Pharmacia, USA). The column was washed with 20 mL of loading buffer and 20 mL of loading buffer containing 70 mM imidazole. The his-tagged HCHL protein was eluted from the column with a linear gradient from 70-1000 mM imidazole in loading buffer.

[6] = test system: Pseudomonas putida (DSM 12585) HCHL (4-hydroxycinnamoyl-CoA hydratase/lyase), native, SEQ ID NO:6
Procedure: LB medium (500 mL containing 50 mg/L) kanamycin was inoculated with a single colony of E. coli BL21 DE3 cells harboring the pET HCHL expression construct. Cells were grown to an ODλ=600 nm of 0.6 and protein production was induced by the adding of 0.2 mM IPTG. Cells were grown at room temperature for 24 h. Cells were harvested by centrifugation (5000×g for 10 min) and resuspended in 15 mL of 100 mM Tris/HCl (pH 8.5), 20 mM DTT, and 300 mM NaCl. […] Two 2.5-mL aliquots of the cell-free extract were buffer-exchanged using PD10 columns into 50 mM Tris/HCl (pH 7.6), 10 mM Na2SO3, and 1 mM EDTA. Buffer-exchanged extract (7 mL) was loaded onto a Q-sepharose column (15 mL gel bed volume). […] A fraction with HCHL activity was purified further by chromatography on hydroxyapatide (Biorad Econo-Pac cartridge CHT-II, 1 mL gel bed volume (Biorad, Calif., USA)). Approximately 2.5 mL was buffer-exchanged into (10 mM NaPO4, (pH 6.8) and 10 μM CaCl2).

[7] = target: T1, Caulobacter crescentus HCHL (4-hydroxycinnamoyl-CoA hydratase/lyase), SEQ ID NO:61 (Caulobacter vibrioides, UniProt Q9A5P6); settings: Table 12; 0.8 ng enzyme, pHCACoA 0.9 to 440 μM
T1 sequence (Q9A5P6 1-275): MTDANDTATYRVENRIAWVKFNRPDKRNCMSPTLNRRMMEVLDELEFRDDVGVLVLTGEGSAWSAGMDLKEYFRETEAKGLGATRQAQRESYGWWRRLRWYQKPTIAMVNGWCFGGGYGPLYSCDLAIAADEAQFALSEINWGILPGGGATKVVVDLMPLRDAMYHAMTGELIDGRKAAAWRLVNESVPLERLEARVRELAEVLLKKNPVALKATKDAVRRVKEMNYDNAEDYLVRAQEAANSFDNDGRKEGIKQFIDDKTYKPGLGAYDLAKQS

[8] = HCHL enzyme assay, kinetic properties of purified recombinant HCHL with pHCACoA; assay type: biochemical; settings: compared to the Pseudomonas fluorescens AN103 enzyme
Text: The reaction mixture was cleared by centrifugation.

[9] = substrate: CC(C)(COP(=O)(O)OP(=O)(O)OC[C@H]1O[C@@H](n2cnc3c(N)ncnc32)[C@H](O)[C@@H]1OP(=O)(O)O)[C@@H](O)C(=O)NCCC(=O)NCCSC(=O)/C=C/c1ccc(O)cc1; test: purified protein, by the assay type; settings: other: Table 12, 0.8 ng enzyme, pHCACoA 0.9 to 440 μM, pH 8.5, 30° C.
[10] = native enzyme, Example 1, pH 8.5, 30° C.

4CL1 HCHL: Arabidopsis 4CL1 promoter fused to P. putida HCHL coding sequence, SEQ ID NO:28
Whole stalk pHBA highest (Arabidopsis plants [1]): 12.93 (line 183) mg/g DW
Basal stalk pHBA average (Arabidopsis plants [1]): 0.55 mg/g FW
Basal stalk pHBA highest (Arabidopsis plants [1]): 3.87 mg/g FW
pHBA levels relative to the best 35S HCHL line (Arabidopsis plants [1]): 60%

AtCesA7 (IRX3) HCHL: Arabidopsis AtCesA7 (IRX3) promoter fused to P. putida HCHL coding sequence, SEQ ID NO:30
Whole stalk pHBA highest (Arabidopsis plants [1]): 12.96 (line 366) mg/g DW
Basal stalk pHBA average (Arabidopsis plants [1]): 1.21 mg/g FW
Basal stalk pHBA highest (Arabidopsis plants [1]): 3.91 mg/g FW
pHBA levels relative to the best 35S HCHL line (Arabidopsis plants [1]): 60%
plant phenotype (Arabidopsis plants [2]): phenotypically indistinguishable from wild type plants
HCHL activity [3]: no detectable HCHL activity

C3′H HCHL: Arabidopsis C3′H promoter fused to P. putida HCHL coding sequence, SEQ ID NO:29
Whole stalk pHBA highest (Arabidopsis plants [1]): 9.52 (line 227) mg/g DW
Basal stalk pHBA average (Arabidopsis plants [1]): 0.41 mg/g FW
Basal stalk pHBA highest (Arabidopsis plants [1]): 1.65 mg/g FW

C4H HCHL: Arabidopsis C4H promoter fused to P. putida HCHL coding sequence, SEQ ID NO:27
Whole stalk pHBA highest (Arabidopsis plants [1]): 23.42 (line 35) mg/g DW
Basal stalk pHBA average (Arabidopsis plants [1]): 0.89 mg/g FW
Basal stalk pHBA highest (Arabidopsis plants [1]): 5.54 mg/g FW
pHBA levels relative to the best 35S HCHL line (Arabidopsis plants [1]): 106%

COc1cc(/C=C/C(=O)SCCNC(=O)CCNC(=O)[C@H](O)C(C)(C)COP(=O)(O)OP(=O)(O)OC[C@H]2O[C@@H](n3cnc4c(N)ncnc43)[C@H](O)[C@@H]2OP(=O)(O)O)ccc1O [feruloylCoA]
Km [4]: 2.4 µM
Vmax [4]: 36.5 nkat/mg
Km [5]: 2.39 µM
Vmax [5]: 37.3 nkat/mg

CC(C)(COP(=O)(O)OP(=O)(O)OC[C@H]1O[C@@H](n2cnc3c(N)ncnc32)[C@H](O)[C@@H]1OP(=O)(O)O)[C@@H](O)C(=O)NCCC(=O)NCCSC(=O)/C=C/c1ccc(O)cc1 [pHCACoA, para-coumaroyl-CoA]
Km [4]: 5.3 µM
Vmax [4]: 73 nkat/mg
Vmax ([6]; Table 12, 1.4 ng enzyme, pHCACoA 0.9 to 440 μM): 43 nkat mg^−1
Km ([6]; Table 12, 1.4 ng enzyme, pHCACoA 0.9 to 440 μM, pH 8.5, 30° C.): 2.4 µM
catalytic center activity (per enzyme dimer) ([6]; from Vmax with pHCACoA, using 30,865.1 Da per monomer): 2.65 s⁻¹
Km [6, 10]: 2.4 µM
Vmax [6, 10]: 43 nkat/mg
Vmax [7]: 240 nkat mg^−1
catalytic center activity (per enzyme dimer) ([5]; from Vmax with pHCACoA, using 32,348.8 Da per monomer): 3.4 s⁻¹
Km [5]: 2.53 µM
Vmax [5]: 53.8 nkat/mg

B1: Caulobacter crescentus HCHL (4-hydroxycinnamoyl-CoA hydratase/lyase), SEQ ID NO:61 (Caulobacter vibrioides CB15) (protein)
chain: T1 sequence (Q9A5P6 1-275)
improvement of catalytic efficiency (Kcat/Km) [8]: 50%
Km [9]: 4 µM

— patent US7238512B2, “Method to produce para-hydroxybenzoic acid in the stem tissue of green plants by using a tissue-specific promoter” (E. I. du Pont de Nemours and Company, priority 2003, dated 2007)
